According to patent publication US6649379B1, “Method and deregulated enzyme for threonine production” (priority 1987, dated 2003):

B1: wild type: wild type C. glutamicum homoserine dehydrogenase (SEQ ID NO:2) (protein)
chain: MTSASAPSFNPGKGPGSAVGIALLGFGTVGTEVMRLMTEYGDELAHRIGGPLEVRGIAVSDISKPREGVAPELLTEDAFALIEREDVDIVVEVIGGIEYPREVVLAALKAGKSVVTANKALVAAHSAELADAAEAANVDLYFEAAVAGAIPVVGPLRRSLAGDQIQSVMGIVNGTTNFILDAMDSTGADYADSLAEATRLGYAEADPTADVEGHDAASKAAILASIAFHTRVTADDVYCEGISNISAADIEAAQQAGHTIKLLAICEKFTNKEGKSAISARVHPTLLPVSHPLASVNKSFNAIFVEAEAAGRLMFYGNGAGGAPTASAVLGDVVGAARNKVHGGRAPGESTYANLPIADFGETTTRYHLDMDVEDRVGVLAELASLFSEQGISLRTIRQEERDDDARLIVVTHSALESDLSRTVELLKAKPVVKAINSVIRLERD

Assays:
homoserine dehydrogenase [1] = target: T1, homoserine dehydrogenase (Corynebacterium glutamicum, UniProt P08499); assay: Homoserine dehydrogenase activity in crude cell extracts (initial decrease in absorbance at 340 nm by NADPH); type: biochemical, C. glutamicum
T1 construct: Crude cell lysates for homoserine dehydrogenase assays were prepared from 500 ml MMCG C. glutamicum AS019 and R102 cultures; endogenous in cells; host or cells: C. glutamicum AS019 and AS019E12/pMF33 (chromosomal wild-type hom); R102 (chromosomal hom^dr); AS019E12/pJD4 (plasmid-borne hom^dr beside chromosomal wild-type hom)
Protocol: Verified pJD4/AS019EI2 transformants were selected for the presence of the plasmid by growth on kanamycin supplemented mediums. The activity of the homoserine dehydrogenase from crude cell extracts of these cultures was determined in the presence and absence of L-threonine. A host cell encoding wild type homoserine dehydrogenase would be inactivated in the presence of 10 mM L-threonine. […] Therefore, homoserine dehydrogenase activity in the presence of L-threonine was derived from the cloned hom^dr gene. The specific activity of the deregulated homoserine dehydrogenase is approximately the same as that reported for the C. glutamicum chromosomal hom gene (0.0450 μM ml^−1min^1) The cloned hom^dr gene product was functional even in the presence of 120 mM L-threonine.
One ml of the supernatant from an overnight 10 ml MMCG culture of an alpha-hydroxy-valerate tolerant C. glutamicum isolate was filter sterilized and added 1:10 to a fresh 10 ml MMCG medium. […] Growth of AS155 was determined by densitometry after a 24 hour incubation at 30° C. […] The activity of homoserine dehydrogenase in crude cell extracts of C. glutamicum R102 and AS019 in the presence of both threonine and alpha-hydroxy-valerate was measured. […] Homoserine dehydrogenase activity was assayed by determining the initial decrease in the absorbance at 340 nm by NADPH as described by Follettie et al., Mol. Microbiol. […]

[2] = target: T2, homoserine dehydrogenase enzyme of C. glutamicum (Corynebacterium glutamicum, UniProt P08499); conditions: threonine inhibition of C. glutamicum homoserine dehydrogenase; read-out: inhibition rate constant (Ki); cited from earlier work
T2 sequence (P08499 1-445): B1 chain

homoserine dehydrogenase [3] = target: T3, homoserine dehydrogenase (Corynebacterium glutamicum, UniProt P08499); design: specific activity reported for the C. glutamicum chromosomal hom gene: unit not given here; conditions: reported value, cited from earlier work
T3 construct: Crude cell lysates for homoserine dehydrogenase assays were prepared from 500 ml MMCG C. glutamicum AS019 and R102 cultures; endogenous in cells; host or cells: C. glutamicum AS019 and AS019E12/pMF33 (chromosomal wild-type hom); R102 (chromosomal hom^dr); AS019E12/pJD4 (plasmid-borne hom^dr beside chromosomal wild-type hom)
T3 sequence (P08499 whole entry, looked up): B1 chain

Molecule | effect of 10 mM L-threonine on wild type homoserine dehydrogenase (homoserine dehydrogenase [1]) | Ki [2] [µM] | specific activity reported for the C. glutamicum chromosomal hom gene (homoserine dehydrogenase [3]) | specific activity reported for wild type (homoserine dehydrogenase [3]; wild type homoserine dehydrogenase) [μM ml^−1min^−1]
C[C@@H](O)[C@H](N)C(=O)O [L-threonine] | inactivate | 160 | – | –
B1 | – | – | 0.0450 | 0.0450
